According to ChEMBL document CHEMBL3507680, “University of Dundee, Gates Library screen for HepG2 cell viability”:

Experiment: Human HepG2 cell viability assay in 384 well format
Assay type: toxicity, cell-based
Parameters: dose 125 nL, time 70.5 hour; concentration not given beside the values
Conditions: HepG2 cells, read-out: Inhibition

Structure (SMILES)	cytotoxicity at 70.5 h [%]
CCc1nnsc1C(=O)NCCCC(CC)(CC)C1OCCO1	-15.8
O=C(NCc1cccs1)c1nc2c(o1)CN(c1ncccn1)C2	-6.55
Cn1ncc2c(=O)[nH]c(N3CCN(C(=O)c4ccsc4)CC3)nc21	14.1
Cc1nc[nH]c1-c1nccn1CCCN(C)C	6.24
COCC(C)(CCO)NC(=O)Nc1cccc(F)c1C (centres undefined)	21.4
O=C1CC2(CCCCC2)C(=O)N1CC(O)COCc1ccccc1F (centres undefined)	-4.1
Cc1cc(F)ccc1-n1cc(O)c(C(=O)NCC[S+](C)[O-])n1 (centres undefined)	8.16
COc1ccc(NC(=O)N(CCO)Cc2ccsc2)cc1	-3.63
Cc1ccc(N2CC[C@@H]3O[C@@H](c4ccncn4)C[C@H]3C2)nn1	-3.76
Cn1cnnc1CN1CCC2(CCCN(C3CCCC3)C2=O)C1 (centres undefined)	1.29
CCc1nnc(CN(C)C(=O)C(CC)n2c(CC)nc3ccccc32)o1 (centres undefined)	3.98
CCc1ncc(-c2cn(CCSc3ncn[nH]3)nn2)cn1	-11.1
CNC(=O)c1ccc(C2CCCN(C(=O)c3c(C)noc3C)C2)nc1 (centres undefined)	-7.86
CCn1nc2c(cc1=O)CN(Cc1nnc(C3CC3)o1)CC2	2.46
CN(Cc1ccc([S+](C)[O-])cc1)c1ccc(Cl)cn1 (centres undefined)	20.8
CC(CO)CN(Cc1ccccc1)C(=O)c1csc(CN(C)C)n1 (centres undefined)	-3.43
COCCN1CCC(NC(=O)C(C)C)CC1	-1.39
O=C(c1cnc2[nH]c(=O)[nH]c(=O)c2c1)N1CCCC1C1CCCCC1 (centres undefined)	-5.02
O=C(c1ccsc1)N1C[C@@H]2CCN(C(=O)c3cccc(F)c3)[C@@H]2C1	-11.5
CN(C)c1ccc(C(=O)N2CCCC(n3cccn3)C2)cn1 (centres undefined)	15
CCc1nnc2n1CCN(Cc1csc(-c3ccccc3)n1)C2	-12.9
CC(Nc1cccc(COCc2ccco2)c1)C(=O)NC(N)=O (centres undefined)	-23
Cc1ccccc1NC(=O)CNC(C)COc1ccccc1 (centres undefined)	-9.44

Structure (SMILES)	cytotoxicity at 70.5 h [%]
O=C(NCc1ccccc1)c1nn(C2CCS(=O)(=O)C2)c2c1CCCC2 (centres undefined)	4.17
O=C(CCc1nccs1)N1CCN(c2ccc(Cl)cn2)CC1	-5.57
c1ccc2oc(CCCN3CCCCC3Cn3cncn3)nc2c1 (centres undefined)	-7.94
O=S(=O)(NCC1(c2cccs2)CCOCC1)c1cccnc1	-6.99
Cc1cnn(C2CCCN(C(=O)Cc3ccc4c(c3)CCO4)C2)c1 (centres undefined)	13.9
Cc1cccnc1NC(=O)C1CSc2ncc(C)c(=O)n2C1 (centres undefined)	-2.04
Cc1nnc(NC(=O)NCc2ccc(N3CCN(C)CC3)nc2)s1	-24.8
CC(=O)NCCC(=O)NC1(c2ccc(Cl)c(Cl)c2)CC1	-3.79
CC(C)n1cnnc1CN(C)C(=O)Cn1ccc2ccccc2c1=O	-8.95
Cc1cnc(N2CCC3(CC2)CC(N(C)Cc2ccncc2)C3)nc1	-5.66
CN(C)C(C(=O)Nc1nccs1)c1c(F)cccc1Cl (centres undefined)	-0.246
CC(=O)N[C@@H]1CN(c2nc(CO)cs2)C[C@H]1c1ccc(C)o1	-12.8
Fc1ccc(NCc2ccncc2)c(OC(F)F)c1	-5.76
CN(Cc1ccc(Br)o1)C(=O)Nc1cccnc1	-5.06
COCCCC(=O)N1CC(=O)Nc2cc(Br)ccc21	-3.54
O=C(c1c(F)cccc1F)N1CCC[C@@H]1Cn1c(=O)oc2ccccc21	-0.473
CNc1cc2c(nn1)CCN(C(=O)c1ccoc1)C2	-6.62
CCc1cnc(N2CCCC(CCC(N)=O)C2)nc1 (centres undefined)	17.3
Cc1cccn2c(=O)cc(CN3CCCCC3Cn3cncn3)nc12 (centres undefined)	7.36
O=C(Nc1nnc(C2CC2)s1)NC1CCN(Cc2ccccc2)C1 (centres undefined)	-28
CS(=O)(=O)c1nnc(NC(=O)CCc2ccc(Cl)s2)[nH]1	-10.2
COc1nccnc1N1CCCC2(C1)C(=O)N(C)c1ccccc12 (centres undefined)	-12.3
CC(C)(C)C(=O)Nc1cnn(-c2ccccc2S(C)(=O)=O)c1	-9.09

Structure (SMILES)	cytotoxicity at 70.5 h [%]
O=C(O)c1cc(-c2ccncc2)cc(S(=O)(=O)N2CCCCCC2)c1	-18.9
CN1C(=O)[C@H]2CC[C@@H]1CN(S(=O)(=O)c1ccc(Cl)cc1Cl)C2	-10.4
COc1ccccc1C(CNC(=O)NCc1cc[nH]n1)N1CCCC1 (centres undefined)	12.7
CN1CCOC(C)(C(=O)N2CCN(C3CCCC3)CC2)C1 (centres undefined)	-11.9
Cc1[nH]ccc1C(=O)N1CCCN1C(=O)OC(C)(C)C	0.542
COc1c(C2CCCN2C(=O)c2ccoc2)c(C)nn1C (centres undefined)	13.3
O=C(c1cc(C2CC2)[nH]n1)N1CCN(Cc2ccc(Cl)cc2)CC1	12.5
CSc1nccc(N2CCC(NCc3nc(C)cc(C)n3)CC2)n1	1.01
CN1CCOC(CNCc2coc(-c3ccc(Cl)cc3)n2)C1 (centres undefined)	-2.49
COC1(CNC(=O)c2ccoc2)CCSC1 (centres undefined)	-11
OC1(CNCCCN2CCCc3ccccc32)CNCCOC1 (centres undefined)	-13
CS(=O)(=O)N1Cc2ccccc2CC2(CCN(Cc3ccncc3)C2)C1 (centres undefined)	-9.23
Cc1nc(N2CCN(C(=O)c3ccccc3)CC2)cc(-n2ccnc2)n1	10.7
Cc1noc(C)c1CN1C[C@@H]2CC[C@H](C1)N(Cc1cc(F)cc(F)c1)C2	-14.1
c1cnn(CC2CN(CCCOc3ccc4c(c3)OCO4)CCO2)c1 (centres undefined)	-8.43
Cc1nnc(-c2cccc(N3CCC(NC(C)CC(C)C)CC3)c2)s1 (centres undefined)	-4.36
Cc1ccc(CN(C)c2nccc(-c3cn(C)nc3C)n2)o1	-9.08
CCn1ccc2ccnc(CC3CN(C(=O)c4cnco4)C3)c21	-6.85
O=C(c1ccncc1)N1CCc2onc(CN3CCCC3)c2C1	18.4
CC(C)(C)n1cc(C2=CCN(CCN3CCCCCC3)CC2)cn1	-4.69
O=C(Nc1cccs1)N(CCO)CCOCC(F)(F)F	6.76
CN(CCc1ccccc1)C(=O)c1cc(CN2CCC(O)CC2)on1	-5.34
COc1ccc(COCC(O)CNC(=O)c2ccc(C#N)cc2)cc1 (centres undefined)	-5.39

Structure (SMILES)	cytotoxicity at 70.5 h [%]
Cc1ccc(C(=O)NC(C)CN2CCCC2=O)c(=O)[nH]1 (centres undefined)	-5.25
CN1CCCCC12CCN(C(=O)c1cccn1C)CC2	-7.36
Cc1cc2c(=O)n3c(nc2s1)CCN(C(=O)c1ccnn1C)CC3	-8.17
CCC(=O)N1CCc2nc3cc(OC)c(OC)cc3c(=O)n2CC1	29.2
CC(=O)c1cccc(NC(=O)CN2CCCCC2C)c1 (centres undefined)	-2.56
Cc1ccc(OCCCNC(=O)NC(C)c2nncn2C)cc1 (centres undefined)	-3.66
Cc1nnsc1C(=O)N(C)Cc1nc(-c2ccccn2)no1	-2.75
CC(=O)c1cc(CN2C[C@@H](NS(=O)(=O)N(C)C)[C@H](C(C)C)C2)cs1	7.82
CN(C(=O)c1cccc2[nH]ncc12)C1CCN(c2ccccn2)CC1	31.6
COCCn1ccc(NC(=O)Nc2ccncc2)n1	-3.96
Cc1cc(C)n(-c2cncc(NCCNC(=O)CC3CCCC3)n2)n1	-4.52
Cc1nnc2n1CC(CNc1cnc3ccccc3n1)CC2 (centres undefined)	-9.52
CCCOC1CCCN(C(=O)Cn2cccc(C(F)(F)F)c2=O)C1 (centres undefined)	-6.8
COc1ccc(C2CCN(CCCC#N)CC2)cc1	27.7
CN(C)CCNC(=O)c1cc2n(n1)CCN(C(=O)CC(C)(C)C)C2	-9.74
COc1ccc(CN2CCn3cncc3C2)cc1Cn1cncn1	-5.89
CCC(=O)N1CSCC1C(=O)Nc1ccccc1-c1cccs1 (centres undefined)	-9.09
Cc1cc(C)n(CCCNC(=O)C(C)NC(=O)c2ccccc2Cl)n1 (centres undefined)	-8.83
CN(C)C(=O)N1CCc2c(nnn2C)C1COCc1ccccc1 (centres undefined)	-2.85
COCCN(CCOC)c1ncccc1I	-4.47
CN1CCN(C(=O)[C@H]2C[C@@H]3CN(c4ncc(F)cn4)C[C@@H]3N2C)CC1	-8.27
CCN1CC2(CCOCC2)c2cc(NS(=O)(=O)CC)ccc21	-2.27
CCOc1ccccc1CNC1CCCN(Cc2noc(C)n2)C1 (centres undefined)	-9.86

Structure (SMILES)	cytotoxicity at 70.5 h [%]
CCCc1n[nH]c(C2CN(Cc3ncc[nH]3)CCO2)n1 (centres undefined)	4.94
Cc1occc1C(=O)N1CCC2(CCCN(CC3CC3)C2=O)C1 (centres undefined)	-15
CC1c2ncc(Cn3cncn3)n2CCN1C(=O)C1CCOCC1 (centres undefined)	-2.59
COCCC(=O)N1CCCC(CCC(=O)Nc2ccc(Cl)cc2)C1 (centres undefined)	-6.03
COc1cccc(CNC(=O)Nc2ccc3[nH]nnc3c2)c1OC	-9.41
Cc1cccc2c1N(C)C(=O)C21CC(=O)Nc2c1cnn2C(C)(C)C (centres undefined)	-18.4
Cc1nnc(N2CCCC(CS(N)(=O)=O)C2)c(C#N)c1C (centres undefined)	-2.95
CN(Cc1noc(C2CC2)n1)C1CCN(Cc2cccc(F)c2F)C1 (centres undefined)	15.9
Cn1ncc2c1C(COCC1CC1)CN(C(=O)Cc1ccsc1)C2 (centres undefined)	-2.83
Cc1cc(C(=O)N2C[C@@H]3COC[C@]3(CN(C)C)C2)sc1C	-11.8
C1CN(c2nc(C3CC3)ns2)CCS1	-1.41
CN(Cc1cnn(C)c1)C(=O)c1cc(C(F)(F)F)n(C)n1	-15.3
Cc1nc(Nc2nccs2)cc(C2CN(C(C)C)C2)n1	-5.94
NC(=O)C1CCCN1CCCc1ccc(C(F)(F)F)cc1 (centres undefined)	-5.39
Cn1cc(-c2c(C#N)c(N)nc3c2CCc2[nH]ccc2-3)cc1C#N	16.7
Cc1ccnn1CC(=O)Nc1cc(-c2ccncc2)[nH]n1	-6.24
CC(C)NC(=O)C1c2c(ncn2C(C)C)CCN1Cc1ccccc1 (centres undefined)	-3.52
CCCn1nnnc1COc1ccc(C(=O)OC)cc1OC	-16.9
Cc1ncsc1CN1C[C@@H]2COC[C@]2(C(=O)NC2CC(F)(F)C2)C1	-4.72
O=C1NCCc2c1sc1ccc(C(=O)N3CC[C@H](CO)[C@H](O)C3)cc21	-2.24
O=C1c2c(O)cc(O)cc2O[C@@H](c2ccc(O)cc2)[C@@H]1O	-7.81
CN1CCN(c2ccccc2CNC(=O)CSC(F)(F)F)CC1	-6.98
